Earlier results, collected in patent publication US8637688B2, “Topical dosage form comprising tri-substituted glycerol compounds” (priority 2006, dated 2014).

What was measured:
[1] = system: cutaneous metastases from breast cancer; settings: 6% solution, topical, average dose rate 0.3 mg/cm^2 skin area
[2] = 6% solution, topical

Compound: CCCCCCCCCCCCCCCCOP(=O)([O-])OCC[N+](C)(C)C [miltefosine, hexadecylphosphocholine]
- patients treated who showed a beneficial response to the medicament [1]: about one third
- skin irritations (redness, itching, cauterization or the like) shortly upon administration [2]: significant skin irritations
